Laboratory results as given in ChEMBL document CHEMBL1125129, “Design of potent and selective linear antagonists of vasopressor (V1-receptor) responses to vasopressin” (J Med Chem, 1990).

Tests used:
Vasopressin V1 receptor = Vasopressin V1 receptor (Rattus norvegicus, UniProt P48974+P30560); assay: pA2 value was determined for Vasopressin V1 receptor antagonistic activity in vivo in anesthetized rats; assay type: functional, organism-based
Rattus norvegicus = assay: pA2 value was determined for antidiuretic V2 antagonistic activity in vivo in anesthetized rats pA2 value was determined for antidiuretic V2 antagonistic activity in vivo in anesthetized rats; assay type: functional, organism-based; details: Urine, read-out: pA2 (converted)
[1] = target: Vasopressin V2 receptor (Rattus norvegicus) (UniProt Q00788); assay: Effective dose was determined for Vasopressin V2 receptor antagonistic activity in vivo in anesthetized rats; assay type: functional, organism-based
[2] = target: Vasopressin V1 receptor (Rattus norvegicus) (UniProt P48974+P30560); assay: Effective dose was determined for Vasopressin V1 receptor antagonistic activity in vivo in anesthetized rats; assay type: functional, organism-based
[3] = target: Vasopressin V2 receptor (Rattus norvegicus) (UniProt Q00788); assay: Selectivity ratio of antidiuretic Vasopressin V2 receptor ED /[…] receptor ED; details: Urine

Sequence of Vasopressin V2 receptor (Rattus norvegicus) (Q00788 whole entry): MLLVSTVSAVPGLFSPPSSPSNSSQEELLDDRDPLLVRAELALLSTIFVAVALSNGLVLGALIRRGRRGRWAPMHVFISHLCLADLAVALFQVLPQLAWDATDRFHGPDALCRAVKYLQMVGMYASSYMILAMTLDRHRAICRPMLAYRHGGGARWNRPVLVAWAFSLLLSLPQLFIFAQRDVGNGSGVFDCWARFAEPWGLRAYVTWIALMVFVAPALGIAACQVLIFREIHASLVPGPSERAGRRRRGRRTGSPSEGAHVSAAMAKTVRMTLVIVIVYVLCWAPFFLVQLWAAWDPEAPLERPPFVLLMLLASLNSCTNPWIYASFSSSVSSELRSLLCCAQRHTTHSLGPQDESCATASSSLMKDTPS
Sequence of Vasopressin V1 receptor (Rattus norvegicus) (P30560 whole entry, looked up): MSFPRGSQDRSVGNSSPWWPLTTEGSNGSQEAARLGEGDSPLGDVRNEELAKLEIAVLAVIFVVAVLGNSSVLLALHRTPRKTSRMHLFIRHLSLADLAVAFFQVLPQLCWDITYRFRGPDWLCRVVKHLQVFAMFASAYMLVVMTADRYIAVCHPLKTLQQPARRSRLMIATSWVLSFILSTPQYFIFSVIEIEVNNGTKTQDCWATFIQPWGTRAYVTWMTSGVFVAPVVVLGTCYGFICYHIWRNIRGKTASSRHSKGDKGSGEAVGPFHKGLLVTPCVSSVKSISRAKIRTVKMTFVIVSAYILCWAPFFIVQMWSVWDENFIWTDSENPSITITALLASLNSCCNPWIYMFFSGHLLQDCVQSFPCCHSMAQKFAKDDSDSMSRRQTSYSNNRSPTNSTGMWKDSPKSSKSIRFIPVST
Sequence of Vasopressin V1 receptor (Rattus norvegicus) (P48974 whole entry, looked up): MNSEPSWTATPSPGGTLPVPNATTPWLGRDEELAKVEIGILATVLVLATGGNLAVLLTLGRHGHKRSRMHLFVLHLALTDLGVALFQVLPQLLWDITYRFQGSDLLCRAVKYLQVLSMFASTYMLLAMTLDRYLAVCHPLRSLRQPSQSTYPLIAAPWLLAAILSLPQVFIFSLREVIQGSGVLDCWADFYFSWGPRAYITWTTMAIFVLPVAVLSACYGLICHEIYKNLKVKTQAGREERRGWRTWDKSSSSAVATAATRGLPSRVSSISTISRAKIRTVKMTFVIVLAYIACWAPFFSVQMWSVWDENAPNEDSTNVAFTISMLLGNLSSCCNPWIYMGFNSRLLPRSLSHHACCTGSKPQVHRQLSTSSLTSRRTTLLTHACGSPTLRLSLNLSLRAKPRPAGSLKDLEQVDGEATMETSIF

| Structure (SMILES) | pA2 (Vasopressin V1 receptor) | Kb (Rattus norvegicus) | Effective dose [1] | Effective dose [2] | Ratio [3] |
| --- | --- | --- | --- | --- | --- |
| CCOc1ccc(C[C@@H](NC(=O)CC23CC4CC(CC(C4)C2)C3)C(=O)N[C@@H](Cc2ccccc2)C(=O)N[C@H](C(=O)N[C@@H](CC(N)=O)C(=O)N[C@@H](CCCN)C(=O)N2CCC[C@H]2C(=O)N[C@@H](CCCN=C(N)N)C(=O)N[C@@H](CCCN=C(N)N)C(N)=O)C(C)C)cc1 | 7.64 | ~12.6 nM | – | – | – |
| CCOc1ccc(C[C@@H](NC(=O)CC23CC4CC(CC(C4)C2)C3)C(=O)N[C@@H](Cc2ccccc2)C(=O)N[C@H](C(=O)N[C@@H](CC(N)=O)C(=O)N[C@@H](CCCN=C(N)N)C(=O)N(C)[C@@H](C)C(=O)N[C@@H](CCCN=C(N)N)C(N)=O)C(C)C)cc1 | 8.28 | 17 nM | 1.2 nM/kg | 0.37 nM/kg | 3.2 |
| CCOc1ccc(C[C@@H](NC(=O)CC23CC4CC(CC(C4)C2)C3)C(=O)N[C@@H](Cc2ccccc2)C(=O)N[C@H](C(=O)N[C@@H](CC(N)=O)C(=O)N[C@@H](CCCN=C(N)N)C(=O)N2CCC[C@H]2C(=O)N[C@@H](CCCN=C(N)N)C(N)=O)C(C)C)cc1 | 8.01 | 18.6 nM | – | – | – |
| CCOc1ccc(C[C@@H](NC(=O)CC(C)(C)C)C(=O)N[C@@H](Cc2ccccc2)C(=O)N[C@H](C(=O)N[C@@H](CC(N)=O)C(=O)N[C@@H](CCCCN)C(=O)N2CCC[C@H]2C(=O)N[C@@H](CCCN=C(N)N)C(N)=O)C(C)C)cc1 | 8.63 | 100 nM | – | – | – |
| CCOc1ccc(C[C@@H](NC(=O)Cc2ccccc2)C(=O)N[C@@H](Cc2ccccc2)C(=O)N[C@@H](CCC(N)=O)C(=O)N[C@@H](CC(N)=O)C(=O)N[C@@H](CCCCN)C(=O)N2CCC[C@H]2C(=O)N[C@@H](CCCN=C(N)N)C(N)=O)cc1 | 9.05 | 501 nM | – | – | – |
| CCOc1ccc(C[C@H]2NC(=O)CC3(CCCCC3)SSC[C@@H](C(=O)N3CCC[C@H]3C(=O)N[C@@H](CCCN=C(N)N)C(N)=O)NC(=O)[C@H](CC(N)=O)NC(=O)[C@H](C(C)C)NC(=O)[C@H](Cc3ccccc3)NC2=O)cc1 | 8.17 | 20.4 nM | – | – | – |
